How the values were obtained:
Test in all cases: relative viability vs DMSO control (72 h) (fraction); higher = more viable cells
HS729 = system: HS729
Method in brief: (§1)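 A 5 µM positive control and 0.1% DMSO vehicle ran alongside sarcoma cell lines seeded in 384-well plates to reach 80–90% confluence. Serially diluted compound, 2.5 µl from source plates of 10 mM to 0.0002 mM, was added after 24 h, and the plates were held 72 h at 37 °C, 5% CO2. Relative viability was worked out from ATPLite readings as percent growth averaged over up to triplicate wells. The values were rescaled so that 1 is full and 0 is none.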

SK-ES-1 = system: SK-ES-1
Method in brief: as §1

VA-ES-BJ = system: VA-ES-BJ
Method in brief: as §1

A204 = system: A204
Method in brief: as §1

RD = system: RD
Method in brief: as §1

SW872 = system: SW872
Method in brief: as §1

SK-LMS-1 = system: SK-LMS-1
Method in brief: as §1

SW982 = system: SW982
Method in brief: as §1

KHOS-240S = system: KHOS-240S
Method in brief: as §1

MES-SA = system: MES-SA
Method in brief: as §1

SW1353 = system: SW1353
Method in brief: as §1

G401 = system: G401
Method in brief: as §1

CCOc1cc2ncc(C#N)c(Nc3ccc(OCc4ccccn4)c(Cl)c3)c2cc1NC(=O)/C=C/[C@H]1CCCN1C [Pyrotinib]
Settings	relative viability
A204, 5.081 pM	1.04
A204, 15.24 pM	1.07
A204, 45.72 pM	1.08
A204, 0.000137174 µM	1.04
A204, 0.000411523 µM	1.06
A204, 0.00123457 µM	1.07
A204, 0.0037037 µM	1.09
A204, 0.0111111 µM	1.11
A204, 0.0333333 µM	1.07
A204, 0.1 µM	1.1
A204, 0.3 µM	1.06
G401, 5.081 pM	1.04
G401, 15.24 pM	1.03
G401, 45.72 pM	1.03
G401, 0.000137174 µM	1.05
G401, 0.000411523 µM	1.06
G401, 0.00123457 µM	1.02
G401, 0.0037037 µM	1.02
G401, 0.0111111 µM	1.024
G401, 0.0333333 µM	1.02
G401, 0.1 µM	1.02
G401, 0.3 µM	1.01
HS729, 5.081 pM	0.989
HS729, 15.24 pM	0.917
HS729, 45.72 pM	0.962
HS729, 0.000137174 µM	0.9073
HS729, 0.000411523 µM	0.875
HS729, 0.00123457 µM	0.866
HS729, 0.0037037 µM	0.857
HS729, 0.0111111 µM	0.918
HS729, 0.0333333 µM	0.91
HS729, 0.1 µM	0.858
HS729, 0.3 µM	0.808
KHOS-240S, 5.081 pM	1.07
KHOS-240S, 15.24 pM	1.08
KHOS-240S, 45.72 pM	1.06
KHOS-240S, 0.000137174 µM	1.06
KHOS-240S, 0.000411523 µM	1.05
KHOS-240S, 0.00123457 µM	1.08
KHOS-240S, 0.0037037 µM	1.07
KHOS-240S, 0.0111111 µM	1.06
KHOS-240S, 0.0333333 µM	1.09
KHOS-240S, 0.1 µM	1.08
KHOS-240S, 0.3 µM	1.05
MES-SA, 5.081 pM	0.967
MES-SA, 15.24 pM	0.957
MES-SA, 45.72 pM	0.9512
MES-SA, 0.000137174 µM	0.959
MES-SA, 0.000411523 µM	0.971
MES-SA, 0.00123457 µM	0.965
MES-SA, 0.0037037 µM	0.948
MES-SA, 0.0111111 µM	0.954
MES-SA, 0.0333333 µM	0.936
MES-SA, 0.1 µM	0.91
MES-SA, 0.3 µM	0.863
RD, 5.081 pM	1.06
RD, 15.24 pM	1.08
RD, 45.72 pM	1.11
RD, 0.000137174 µM	1.11
RD, 0.000411523 µM	1.07
RD, 0.00123457 µM	1.08
RD, 0.0037037 µM	1.14
RD, 0.0111111 µM	1.08
RD, 0.0333333 µM	1.11
RD, 0.1 µM	1.06
RD, 0.3 µM	1.07
SK-ES-1, 5.081 pM	0.989
SK-ES-1, 15.24 pM	1.02
SK-ES-1, 45.72 pM	1.07
SK-ES-1, 0.000137174 µM	1.07
SK-ES-1, 0.000411523 µM	1.02
SK-ES-1, 0.00123457 µM	1.04
SK-ES-1, 0.0037037 µM	1.02
SK-ES-1, 0.0111111 µM	1.04
SK-ES-1, 0.0333333 µM	0.992
SK-ES-1, 0.1 µM	0.987
SK-ES-1, 0.3 µM	0.8694
SK-LMS-1, 5.081 pM	1.06
SK-LMS-1, 15.24 pM	1.06
SK-LMS-1, 45.72 pM	1.06
SK-LMS-1, 0.000137174 µM	1.07
SK-LMS-1, 0.000411523 µM	1.08
SK-LMS-1, 0.00123457 µM	1.06
SK-LMS-1, 0.0037037 µM	1.09
SK-LMS-1, 0.0111111 µM	1.08
SK-LMS-1, 0.0333333 µM	1.07
SK-LMS-1, 0.1 µM	1.03
SK-LMS-1, 0.3 µM	1
SW872, 5.081 pM	1.05
SW872, 15.24 pM	1.06
SW872, 45.72 pM	1.06
SW872, 0.000137174 µM	1.06
SW872, 0.000411523 µM	1.07
SW872, 0.00123457 µM	1.05
SW872, 0.0037037 µM	0.987
SW872, 0.0111111 µM	1.01
SW872, 0.0333333 µM	1.04
SW872, 0.1 µM	0.987
SW872, 0.3 µM	0.913
SW982, 5.081 pM	1
SW982, 15.24 pM	1.03
SW982, 45.72 pM	1.05
SW982, 0.000137174 µM	1.09
SW982, 0.000411523 µM	1.05
SW982, 0.00123457 µM	1.04
SW982, 0.0037037 µM	1.03
SW982, 0.0111111 µM	1.03
SW982, 0.0333333 µM	1.03
SW982, 0.1 µM	1.02
SW982, 0.3 µM	0.952
SW1353, 5.081 pM	1.06
SW1353, 15.24 pM	1.05
SW1353, 45.72 pM	1.03
SW1353, 0.000137174 µM	0.994
SW1353, 0.000411523 µM	1.01
SW1353, 0.00123457 µM	1.04
SW1353, 0.0037037 µM	1.02
SW1353, 0.0111111 µM	1.02
SW1353, 0.0333333 µM	0.947
SW1353, 0.1 µM	0.889
SW1353, 0.3 µM	0.791
VA-ES-BJ, 5.081 pM	1.06
VA-ES-BJ, 15.24 pM	1.05
VA-ES-BJ, 45.72 pM	1.02
VA-ES-BJ, 0.000137174 µM	1.04
VA-ES-BJ, 0.000411523 µM	0.99
VA-ES-BJ, 0.00123457 µM	0.981
VA-ES-BJ, 0.0037037 µM	1.02
VA-ES-BJ, 0.0111111 µM	0.983
VA-ES-BJ, 0.0333333 µM	0.969
VA-ES-BJ, 0.1 µM	0.9689
VA-ES-BJ, 0.3 µM	0.942

Reference: the supplement of paper PMC10883282
